The results in this text go back to US20080076824A1, “Compounds That Inhibit Replication Of Human Immunodeficiency Virus” (priority 2004, published 2008).

Structures can show the parent of a compound that is named as a salt. Where two headings read alike, the source gives them in different places.

The nature of one series: in vitro. Particulars: human.
Another series deals with HIV-1 (IIIB). Put plainly: microbe, parasite or virus in culture. Particulars: Human immunodeficiency virus 1, IIIB, CCRF-CEM.
Series [1] in a line: Conversion of [14C]G-NH2 by Phaseolus vulgaris root nodule extract. The series is classed as biochemical. Particulars: overnight, 37° C. Here is the method:
An extract from Phaseolus vulgaris root nodule was prepared as follows: approximately 20 g of root nodules of 3-4 week old kidney beans (Phaseolus vulgaris) were removed, washed with potassium phosphate buffer 50 mM pH 8.0 and homogenized with 30 ml buffer. Then, the homogenate was sonicated (3×20 sec) on ice, and centrifuged for 15 min, 4° C. at 3,000 rpm. The supernatant was then centrifuged at 15,000 rpm during 20 min at 4° C., aliquoted and stored at −80° C. before use. To the reaction mixture (50 mM potassium phosphate buffer pH 8.0) was added: 0.1 μCi [^14C]G-NH2 and 50 μl extract supernatant (100%, 50% and 20%) and 50 μl buffer. The reaction proceeded overnight (˜18 hrs) at 37° C. Then, methanol was added (200 μl) to stop the reaction and the reaction mixture was subjected to cation exchange column chromatography, as described above. A reaction mixture containing bovine serum was also evaluated as a control.

The next series relates to C8166 cells. Put plainly: Cytotoxicity (CC50) in C8166 cells. In kind it is cell-based.

The EC50 is the concentration needed to bring the measured effect to its halfway point. For `NC(=O)C(N)O` (stereo not drawn) [AlphaHGA, α-Hydroxy-glycinamide hydrochloride], in “in vitro”, the CC50 at 96 hr worked out at 606 ± 23 µM. Besides, the concentration for a half-maximal effect (EC50) came to 40 ± 8.2 µM in the series on HIV-1 (IIIB) (read-out: EC50 (CEM) HIV-1 (IIIB)) and 43 ± 5.8 µM in the series with HIV-1 (IIIB) (read-out: EC50 (CEM) HIV-1(IIIB)).
Consider `NCC(N)=O` [G-NH2, glycinamide], for which the “conversion of glycinamide to modified glycinamide” value in series [1] is “efficiently converts glycinamide to modified glycinamide”. Besides, the CC50 in the series on C8166 cells was more than 2000 µM.
